Experimental data from US20090054332A1, “THOMBOPOIETIN PEPTIDE CONJUGATES” (CONJUCHEM BIOTECHNOLOGIES, INC., priority 2007, published 2009).
Where no end group is shown, it is not given here. Side-chain parts run from the residue outwards. [ ]: non-standard residue; d: D form. The star is where a group is joined. K(MPA) = lysine carrying the MPA reactive group; Propanoyl(3-maleimido) = O=C1C=CC(=O)N1CCC(=O)*; MPA = maleimido propionic acid reactive group; Aoc = NCCCCCCCC(=O)O

Key:
Platelet count = assay: In vivo potency: platelet count after a single injection in CD-1 mice; set-up: species or system mouse; conditions: female CD-1 mice, 10 nmol/kg, 6 days postdose vs prior to dosing, n=4/group
Protocol: Ten to twelve-week old female CD-1 mice were administered with a single injection of the TPO derivatives indicated below at 10 nmol/kg (n=4/group). The DAC™ compounds in Table 4 are variants of TPO peptides modified to include an MPA reactive group, thereby forming an MPA-modified unconjugated peptides. The DAC™ compounds in Table 4 were administered intravenously. Albumin conjugates of the DAC™ compounds (also referred to herein as Preformed Conjugates (PC)) were injected subcutaneously. For each mouse, a blood sample was collected prior to dosing and 6 days postdose via the […]. Platelet counts were measured using an ABC Vet analyzer using standard procedures.
Platelet count fold increases are reported in Table 4 and 5 for MPA-modified TPO peptide and the albumin TPO conjugate, respectively.

[1] = phase I trials, adult and pediatric populations; cited from earlier work
[2] = single subcutaneous injection of preformed albumin conjugate

| Substance | Platelet Count Fold Increase (Platelet count; single intravenous injection) | further results |
| --- | --- | --- |
| (reactive group)-GGGGG-ARAALWQRLTPGEI-GGGGGGGG-ARAALWQRLTPGEI ({Propanoyl(3-maleimido)}-GGGGGARAALWQRLTPGEIGGGGGGGGARAALWQRLTPGEI) [MPA-modified form of SEQ ID NO: 125, unconjugated DAC compound] | <3 fold |  |
| (reactive group)-GGGGG-ARAALWQRLTPGEI-GGGGGGGG-IEGPTLRQWLAARA ({Propanoyl(3-maleimido)}-GGGGGARAALWQRLTPGEIGGGGGGGGIEGPTLRQWLAARA) [MPA-modified form of SEQ ID NO: 121, unconjugated DAC compound] | <3 fold |  |
| (reactive group)-GGGGG-IEGPTLRQWLAARA-GGGGGGGG-ARAALWQRLTPGEI ({Propanoyl(3-maleimido)}-GGGGGIEGPTLRQWLAARAGGGGGGGGARAALWQRLTPGEI) [MPA-modified form of SEQ ID NO: 117, unconjugated DAC compound] | <3 fold |  |
| (reactive group)-GGGGG-IEGPTLRQWLAARA-GGGGGGGG-IEGPTLRQWLAARA ({Propanoyl(3-maleimido)}-GGGGGIEGPTLRQWLAARAGGGGGGGGIEGPTLRQWLAARA) [MPA-modified form of SEQ ID NO: 168, unconjugated DAC compound] | 5.1 fold |  |
| (reactive group)-GGGGG-IEGPTLRQWLAARA-GGGGGGGG-LQGPTLRAWRAGMA ({Propanoyl(3-maleimido)}-GGGGGIEGPTLRQWLAARAGGGGGGGGLQGPTLRAWRAGMA) [MPA-modified form of SEQ ID NO: 185, unconjugated DAC compound] | <3 fold |  |
| (reactive group)-GGGGG-LQGPTLRAWRAGMA-GGGGGGGG-IEGPTLRQWLAARA ({Propanoyl(3-maleimido)}-GGGGGLQGPTLRAWRAGMAGGGGGGGGIEGPTLRQWLAARA) [MPA-modified form of SEQ ID NO: 184, unconjugated DAC compound] | <3 fold |  |
| Ac-ARAALWQRLTPGEI-GGGGGGGG-ARAALWQRLTPGEI-K(OA-reactive group) (Ac-ARAALWQRLTPGEIGGGGGGGGARAALWQRLTPGEIK([Aoc-Propanoyl(3-maleimido)])) [MPA-modified form of SEQ ID NO: 127, unconjugated DAC compound] | <3 fold |  |
| Ac-ARAALWQRLTPGEI-GGGGGGGG-IEGPTLRQWLAARAI-K(OA-reactive group) (Ac-ARAALWQRLTPGEIGGGGGGGGIEGPTLRQWLAARAIK([Aoc-Propanoyl(3-maleimido)])) [MPA-modified form of SEQ ID NO: 123, unconjugated DAC compound] | <3 fold |  |
| Albumin-conjugate of SEQ ID NO: 168: Preformed albumin conjugate (PC) of the MPA-modified TPO peptide of SEQ ID NO: 168 ({Propanoyl(3-maleimido)}-GGGGGIEGPTLRQWLAARAGGGGGGGGIEGPTLRQWLAARA; also: MPA-linked preformed albumin conjugate, site not given here) |  | Platelet Count Fold Increase (Platelet count; [2]): 4.3 fold |
| Albumin-conjugate of SEQ ID NO: 169: Preformed albumin conjugate (PC) of the MPA-modified TPO peptide of SEQ ID NO: 169 (IEGPTLRQWLAARAGGGGGGGGIEGPTLRQWLAARA-{Aoc-Aoc-MPA}; also: MPA-linked preformed albumin conjugate, site not given here) |  | Platelet Count Fold Increase (Platelet count; [2]): 3.8 fold |
| Albumin-conjugate of SEQ ID NO: 170: Preformed albumin conjugate (PC) of the MPA-modified TPO peptide of SEQ ID NO: 170 (IEGPTLRQWLAARAGGGGGGGGIEGPTLRQWLAARAK[Aoc]; not fully specified; printed as IEGPTLRQWLAARA-GGGGGGGG-IEGPTLRQWLAARA-K-OA-; also: MPA-linked preformed albumin conjugate, site not given here) |  | Platelet Count Fold Increase (Platelet count; [2]): 4.4 fold |
| IEGPTLRQWLAARA-GGGGGGGG-IEGPTLRQWLAARA-(OA)-K-(reactive group) (IEGPTLRQWLAARAGGGGGGGGIEGPTLRQWLAARA-{Aoc-K(MPA)}) [MPA-modified form of SEQ ID NO: 190, unconjugated DAC compound] | 5.0 fold |  |
| IEGPTLRQWLAARA-GGGGGGGG-IEGPTLRQWLAARA-K-OA-OA-(reactive group) (IEGPTLRQWLAARAGGGGGGGGIEGPTLRQWLAARAK-{Aoc-Aoc-MPA}; not fully specified) [MPA-modified form of SEQ ID NO: 170, unconjugated DAC compound] | 4.7 fold |  |
| IEGPTLRQWLAARA-GGGGGGGG-IEGPTLRQWLAARA-OA-OA-K-(reactive group) (IEGPTLRQWLAARAGGGGGGGGIEGPTLRQWLAARA-{Aoc-Aoc-K(MPA)}) [MPA-modified form of SEQ ID NO: 169, unconjugated DAC compound] | 4.4 fold |  |
| LQGPTLRAWRAGMA-GGGGGGGG-IEGPTLRQWLAARA-(OA)-K-(reactive group) (LQGPTLRAWRAGMAGGGGGGGGIEGPTLRQWLAARA-{Aoc-K(MPA)}) [MPA-modified form of SEQ ID NO: 191, unconjugated DAC compound] | <3 fold |  |
| rhTPO: full length, glycosylated molecule known as recombinant human thrombopoietin |  | Safety of administration [1]: safe administration |
